Assay results reported in the NIST ThermoML archive (doi:10.1021/je400535t).

Test: molar heat capacity at constant pressure
Details: 101.33 kPa, Crystal, Small (less than 1 g) adiabatic calorimetry

O=C([O][Sb]([O]C(=O)C12CC3CC(CC(C3)C1)C2)([c]1ccccc1)([c]1ccccc1)[c]1ccccc1)C12CC3CC(CC(C3)C1)C2
Details | molar heat capacity at constant pressure [J/K/mol]
5 K | 2.04
6.41 K | 4.28
6.94 K | 5
7.48 K | 6.19
8.31 K | 8.15
9.04 K | 10
9.66 K | 11.6
10 K | 12.5
10.2 K | 13.1
10.77 K | 14.6
11.22 K | 16
11.69 K | 17.3
12.18 K | 18.9
12.78 K | 20.8
13.14 K | 22
13.61 K | 23.6
14.14 K | 25.5
14.53 K | 26.8
15 K | 28.4
15.03 K | 28.42
15.43 K | 29.84
15.87 K | 31.16
16.49 K | 33.38
17.1 K | 35.31
17.71 K | 37.46
18.32 K | 39.7
18.89 K | 41.48
19.52 K | 43.6
20 K | 45.29
20.03 K | 45.33
21.3 K | 50
21.81 K | 51.4
22.55 K | 53.73
23.78 K | 58.14
24.3 K | 60.3
25 K | 62.48
25.02 K | 62.63
26.25 K | 66.95
26.83 K | 69
27.53 K | 71.5
28.8 K | 76.1
29.43 K | 78.2
30 K | 80.54
30.12 K | 81.06
31.46 K | 85.96
32.84 K | 90.86
33.37 K | 92.7
34.23 K | 95.66
35 K | 98.3
35.64 K | 100.4
37.11 K | 105.3
38.61 K | 110.2
39.32 K | 112.6
40 K | 114.6
40.13 K | 115
41.68 K | 119.9
43.2 K | 124.6
44.84 K | 129.5
45 K | 130
46.46 K | 134.4
48.11 K | 139.3
49.81 K | 144.3
50 K | 144.9
51.54 K | 149.4
53.3 K | 154.6
55.08 K | 159.8
56.92 K | 165
58.79 K | 170.2
60 K | 173.4
60.68 K | 175.3
62.61 K | 180.4
64.56 K | 185.5
65.56 K | 188.2
66.56 K | 190.7
67.71 K | 194
68.61 K | 196.1
69.83 K | 198.9
70 K | 199.7
71.36 K | 203.1
72.79 K | 206.9
74.91 K | 212.3
76.18 K | 214.9
77.05 K | 217.4
79.88 K | 223.6
80 K | 223.8
82.03 K | 228.1
82.81 K | 229.3
84.2 K | 232.4
84.88 K | 233.7
86.94 K | 238
87.67 K | 240.1
89 K | 242.4
90 K | 244.7
90.77 K | 246
91.06 K | 246.7
93.12 K | 251.6
93.18 K | 251.3
95.1 K | 255.9
97.23 K | 260.6
99.29 K | 265.2
100 K | 266.9
101.34 K | 269.7
103.39 K | 274.4
105.44 K | 279.4
107.49 K | 283.8
109.54 K | 288
110 K | 289.1
111.58 K | 292.9
113.6 K | 297.5
115.64 K | 301.6
117.68 K | 306.6
119.72 K | 310.6
120 K | 311.3
121.6 K | 314.8
123.78 K | 319.2
125.8 K | 323.9
127.83 K | 328.3
129.85 K | 332.6
130 K | 333.5
131.86 K | 337.5
133.87 K | 341.8
135.88 K | 346.7
137.88 K | 351.3
